Here are results for one molecule from article PMC2700083, “A covalent peptide inhibitor of RGS4 identified in a focused one-bead, one compound library screen” (BMC Pharmacology, 2009).

One assay has as its target T1, RGS7 (Homo sapiens, UniProt P49802).
T1 construct: RGS7 RGS domain (aa: 305–453); made in house
T1 sequence (P49802 305-453): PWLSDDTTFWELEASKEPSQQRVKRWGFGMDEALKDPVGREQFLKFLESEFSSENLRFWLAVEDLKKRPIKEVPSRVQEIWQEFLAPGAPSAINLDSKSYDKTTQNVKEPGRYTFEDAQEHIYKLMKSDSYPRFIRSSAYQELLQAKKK
The experiment in a line: FCPIA, Gαo binding to RGS7. Conditions: Figure 2. On the procedure:
(§1) We recently described a bead-based screen in which 2.5 × 10^6 different peptide sequences were prepared as a OBOC library. Fluorescently labeled RGS4 was used to probe the library for peptides that bind RGS4 [5]. […] Since the majority of those hit peptides could bind tightly to the RGS without disrupting GAP activity, they were also tested in the flow cytometry protein interaction assay (FCPIA) (Figure 1), which measures the interaction between RGS4 and Gαo. In this method we used a Luminex flow cytometer to detect the binding of Alexa Fluor 532-labeled Gαo to biotinylated RGS4 on avidin beads in the presence of AMF (AlCl3, MgCl2, NaF and GDP) to put the Gα subunit into a transition state-like conformation. Peptides were tested at 50 μM except where limited by solubility (Table 1).
(§2) 5nd inhibited Gαo binding to a number of different RGS proteins (Figure 2). […] RGS19 and RGS7 are in the RZ and R7 families, respectively and show less inhibition by 5nd. Linear as well as bridged versions of peptide 5 were tested in the FCPIA since cyclization yields would most likely have been less then 100% in the synthesis of the library leaving some linear peptides present on each bead. […] This may be due to lack of structural rigidity necessary for the correct interaction of the peptide with the RGS protein or a role for chemical reactivity of the disulfide.
(§3) Figure 2 Characterization of hit 5. […]

For a further assay, the target named is T2, RGS19 (Homo sapiens, UniProt P49795).
T2 construct: RGS19ΔC11 (amino acids 1–209); made in house
T2 sequence (P49795 1-209): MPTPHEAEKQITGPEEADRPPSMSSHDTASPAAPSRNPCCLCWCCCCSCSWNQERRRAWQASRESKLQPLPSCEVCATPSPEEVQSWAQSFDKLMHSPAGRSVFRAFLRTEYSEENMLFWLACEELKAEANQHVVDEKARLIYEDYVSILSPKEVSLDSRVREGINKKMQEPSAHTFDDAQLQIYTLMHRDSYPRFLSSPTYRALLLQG
The experiment in a line: FCPIA, Gαo binding to RGS19. Conditions: Figure 2. As to the method:
as §1, §2, §3

The target of another assay is T3, RGS4 (Rattus norvegicus, UniProt P49799).
T3 construct: made in house
T3 sequence (P49799 52-205 limits assumed): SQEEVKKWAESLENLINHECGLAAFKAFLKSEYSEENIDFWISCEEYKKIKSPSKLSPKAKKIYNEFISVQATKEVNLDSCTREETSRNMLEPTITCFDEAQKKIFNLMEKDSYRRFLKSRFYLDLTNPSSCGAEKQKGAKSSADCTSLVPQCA
Nature of the assay: FCPIA (flow cytometry protein interaction assay), RGS4-Gαo interaction, wild type RGS4 (MBP-RGS4Δ51N). It counts as binding. As to conditions: 100 μM. Background: In flow cytometry, cells or beads pass a laser one at a time.

In a further assay the target is T4, RGS4Δ51N (Rattus norvegicus, UniProt P49799).
T4 construct: MBP (N, cleaved yes); His6 (N, cleaved yes); made in house
T4 sequence (P49799 52-205 limits assumed): T3 sequence (P49799 52-205 limits assumed)
Nature of the assay: MALDI MS analysis of covalent adduct with RGS4Δ51N. As to conditions: 250 μM 5nd. On the procedure:
To directly test for the formation of a covalent adduct between 5nd and RGS4, we performed mass spectrometry (MS) analysis. The RGS4Δ51N protein, following TEV-protease cleavage from the MBP-His6 construct, was treated with 5nd at a 50:1 molar ratio. An adduct to the protein that is consistent with the mass of 5nd binding through a disulfide bridge was observed by MS (Figure 4, mass shift observed: Δ999.2 ± 1; expected: Δ998.5). […] There is also a small peak that may represent two peptides per RGS (observed: Δ1999.1 ± 2; expected: Δ1997.0).
Figure 4 MS analysis of RGS4 with and without 5nd pretreatment. RGS4Δ51N was cleaved from the MBP-His6 construct and subject to MALDI MS after pretreatment with DMSO (A) or 5nd (250 μM) (B). Both spectra show the region between 4,000 and 30,000 m/z and have the peak at 18158.8 or 18158.2 m/z for A and B, respectively, which corresponds to the cleaved RGS4Δ51N protein (black arrows). The spectrum in B also has a peak at 19158 m/z that corresponds to a peptide adduct (grey arrows). There is a very small peak at 20157.9 that may correspond to 2 peptides per RGS (grey arrows). The inset is a blow-up of the region between 17500 and 20500 m/z.
Total mass MS of 5 μM RGS4Δ51N was analyzed on a MicroMX MALDI MS instrument in positive ion mode with an accuracy of ± 0.1% after pretreatment with DMSO or 250 μM 5nd. […]

One may read the inhibition as how much of the control response was suppressed.

Each structure is given as a SMILES string. “And” between values parts separate entries of the source, which are not always exact repeats. Equal values may be shown once. Read-outs that look alike come from different tables or passages of the source. Where a SMILES comes first, the peptide text is derived from it. Bridges are numbered along the chain shown (N, C = ends).

In the case of `CC(C)C[C@@H]1NC(=O)CNC(=O)[C@H](CCCCN)NC(=O)[C@@H](NC(=O)[C@H](Cc2c[nH]c3ccccc23)NC(=O)[C@@H](N)Cc2ccc(O)cc2)CSSC[C@@H](C(=O)N[C@@H](CCCCN)C(N)=O)NC1=O` [Peptide 5nd, Tyr-Trp-c [Cys-Lys-Gly-Leu-Cys]-Lys-NH2, S-S] (H-YWCKGLCK-NH2; disulfide 3-7), the IC50 on RGS7 (read-out: logIC50, RGS7 (converted)) was around 174 µM; on RGS7 (dose response, read-out: IC50, Gαo binding to RGS7) it was 175 µM and ~175 µM; on RGS19 (read-out: logIC50, RGS19 (converted)) it was around 145 µM; on RGS19 (dose response, read-out: IC50, Gαo binding to RGS19) it was 145 µM and ~145 µM. Besides, the inhibition at 100 µM came out at 15 ± 4% at RGS4 (beads washed in buffer with 1 mM DTT, read-out: percent inhibition of RGS4-Gαo after DTT wash) and 75 ± 11% at RGS4 (beads washed in buffer without DTT, read-out: percent inhibition of RGS4-Gαo remaining after washing of the beads). The “mass shift observed, adduct of one peptide per RGS” value at RGS4Δ51N (5 μM RGS4Δ51N (50:1), expected Δ998.5) was 999.2 ± 1. Besides, the “mass shift observed, small peak that may represent two peptides per RGS” value on RGS4Δ51N (5 μM RGS4Δ51N, expected Δ1997.0) is reported as 1999.1 ± 2.
